Test results: patent US20080085889A1, “Amidomethyl-Substituted 1-(Carboxyalkyl) Cyclopentyl-Carbonylamino-Benzazepine-N-Acetic Acid Compounds, Process and Intermediate Products for Their Preparation and Pharmaceutical Compositions Containing Them” (SOLVAY PHARMACEUTICALS GmbH, priority 2003, published 2008)
pIC50: −log10 of the molar value.

Columns and labels:
[1] = Plasma protein binding, equilibrium dialysis, human plasma; format: in vitro ADME; settings: human plasma (10% for routine testing), 37° C., pH 7.4, 10% plasma (100% for low binders), read-out: % bound (human plasma) (converted)
Procedure: (§1) Plasma protein binding of the test substances of Formula I was measured using a validated equilibrium dialysis method. The dialysis cells consisted of two halves separated by a semi-permeable membrane slightly tensioned in between. […] Before being used, the membranes were re-hydrated by soaking in water followed by the dialysis buffer. Plasma (10% for routine testing, and 100% for compounds found to have a low protein binding) was heated to 37° C. and adjusted to pH 7.4 before use. 5 μM test compound solutions (final dimethylsulfoxide concentration 0.5%) were prepared in isotonic phosphate buffer containing rat or human plasma. The plasma-containing solution was on one side of the membrane, and the plasma-free on the other. Incubations were performed overnight (10% plasma assay), or for 2 hours (100% plasma assay) in triplicate. The cells were mounted in a drive unit that rotated the cells and ensured a uniform equilibrium was obtained. The equilibrium was temperature controlled by the drive unit being immersed in a water bath at 37° C. At the end of the equilibration time, the cells were emptied. The solutions for each batch of compounds were combined into two groups (plasma-free and plasma-containing) then cassette analysed by LC-MS/MS using two sets of calibration standards for plasma-free (7 points) and plasma-containing solutions (6 points). The percentage of protein bound compound was calculated as follows: [formula] PC=sample concentration in protein containing side; PF=sample concentration in protein free side;

[2] = Plasma protein binding, equilibrium dialysis, rat plasma; format: in vitro ADME; settings: rat plasma (10% for routine testing), 37° C., pH 7.4, 10% plasma (100% for low binders), read-out: % bound (rat plasma) (converted)
Procedure: as §1

[3] = tested on: maximal SAP response to Big-ET; assay: In vivo inhibition of maximal SAP response to Big-ET in anesthetized rats after oral administration; design: species or system Rats (Sprague-Dawley); settings: oral by gavage, 100 μmol/kg, 1 h before Big-ET challenge; mean ± standard error; negative = inhibition
Procedure: Rats (Sprague-Dawley, CRLD=Charles River) were anaesthetised with 1 ml/kg Rompun/Ketavet 1:1. A pressure transducer (Statham) was inserted into the carotid artery to measure blood pressure.
For oral testing, the substances (or vehicle) were given by gavage at doses of 100 μmol/kg each, 1 h before the Big-ET challenge, and blood pressure and heart rate were monitored as described above.
The inhibition of maximal SAP response to Big-ET in anesthetized rats following oral administration of the test substances of Formula I is set forth in the following Table 3c: […]
Data given in table 3c as negative values indicate an inhibitory effect. Values are means from 3-6 independent series of experiments ±standard error.

[4] = biological target: T1, soluble, human recombinant NEP (Homo sapiens, UniProt P08473); assay: In-vitro investigation of the NEP inhibitory action (fluorescence-quenched Big-ET-1 analogue, HPLC); format: biochemical
T1 construct: soluble, human recombinant NEP; purchased Prof; Crine, University of Montreal, Canada
Summary of the method: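 Enzyme preincubated with test substance 15 min at 37° C, then incubated with fluorescence-quenched Mca peptide substrate 60 min at 37° C and stopped by heating to 95° C. Cleaved and intact peptide separated by reversed-phase HPLC; unquenched Mca peak area (ex 328/em 393 nm) gave % inhibition versus no-compound control, duplicates, IC50 derived.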

[5] = biological target: T2, His6-tagged hSEP ectodomain (Homo sapiens, UniProt Q495T6); assay: In vitro investigation of the hSEP-inhibitory action (fluorescence-quenched Big-ET-1 analogue, HPLC); format: biochemical
T2 construct: His6-tagged hSEP ectodomain; His6; purchased Innogenetics, Ghent, Belgium
T2 sequence (Q495T6 49-779 limits assumed): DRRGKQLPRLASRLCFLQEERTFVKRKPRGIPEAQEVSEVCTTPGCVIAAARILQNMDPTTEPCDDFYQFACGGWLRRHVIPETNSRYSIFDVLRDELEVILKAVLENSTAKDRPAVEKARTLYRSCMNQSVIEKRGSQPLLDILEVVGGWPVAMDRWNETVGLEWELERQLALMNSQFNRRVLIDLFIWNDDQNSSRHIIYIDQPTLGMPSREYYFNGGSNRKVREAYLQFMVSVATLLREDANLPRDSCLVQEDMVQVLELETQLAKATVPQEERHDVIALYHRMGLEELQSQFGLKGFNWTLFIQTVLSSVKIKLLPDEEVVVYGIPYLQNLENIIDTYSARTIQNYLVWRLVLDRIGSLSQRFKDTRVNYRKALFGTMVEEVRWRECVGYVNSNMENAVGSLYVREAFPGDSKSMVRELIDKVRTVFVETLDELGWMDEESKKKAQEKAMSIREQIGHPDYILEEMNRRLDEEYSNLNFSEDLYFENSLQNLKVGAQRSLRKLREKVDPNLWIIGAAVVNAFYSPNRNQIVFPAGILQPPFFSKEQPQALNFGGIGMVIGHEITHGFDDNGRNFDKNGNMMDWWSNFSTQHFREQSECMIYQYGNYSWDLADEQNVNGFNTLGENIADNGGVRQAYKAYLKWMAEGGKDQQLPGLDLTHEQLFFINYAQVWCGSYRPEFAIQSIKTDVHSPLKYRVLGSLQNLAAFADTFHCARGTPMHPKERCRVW
Summary of the method: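 Performed as for the NEP assay, with HPLC analysis and 10 nM phosphoramidon as the standard inhibitor. IC50 is the compound concentration blocking 50% of hSEP enzymatic activity.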

[6] = biological target: T3, hSEP (sol hu)(his)6; His6-tagged hSEP ectodomain (Homo sapiens, UniProt Q495T6); assay: Enzymatic breakdown of CNP and VIP by hSEP and its inhibition, in vitro, HPLC; format: biochemical; settings: no inhibitor, 37° C.
T3 construct: His6-tagged hSEP ectodomain; His6; purchased Innogenetics, Ghent, Belgium
T3 sequence (Q495T6 49-779 limits assumed): T2 sequence (Q495T6 49-779 limits assumed)
Procedure: The inhibition of the enzymatic breakdown of CNP and VIP by the compounds used according to the invention was measured in an enzymatic in vitro assay according to the following protocol:
All test compounds were dissolved in DMSO at 10 mM and further diluted with assay buffer.
80 μl of assay buffer, 10 μl of enzyme working solution (NEP or hSEP) and 10 μl of peptide stock solution (VIP or CNP) were mixed in an Eppendorf vial and incubated for 120 min. at 37° C. The enzymatic reaction was subsequently terminated by heating to 95° C. for 5 min. After centrifugation (Heraeus Biofuge B, 3 min) the supernatant was subjected to HPLC.
70 μl of assay buffer, 10 μl of enzyme working solution (NEP or hSEP) and 10 μl of a test compound solution were mixed in an Eppendorf vial and preincubated at 37° C. for 15 minutes. Then, 10 μl of peptide stock solution (VIP or CNP) was added and the reaction mixture was incubated at 37° C. for 60 min. to allow enzymatic hydrolysis. The enzymatic reaction was subsequently terminated by heating to 95° C. for 5 min. After centrifugation (Heraeus Biofuge B, 3 min) the supernatant was subjected to HPLC. In order to separate the remaining substrate from the cleavage products, a reversed phase HPLC technique with a CC 125/4 Nucleosil 300/5 C18 RP column and a CC 8/4 Nucleosil 100/5 C18 precolumn (Macherey-Nagel, Düren, Germany) was used. 60 μl of the reaction samples were injected into the HPLC and the column was eluted at a flow rate of 1 ml/min with the following gradient:
All peptides were detected by absorbance at 214 nm (UV spectroscopy). The percentage (=%) of hydrolysis was calculated on the basis of the peak area of the undegraded peptide for an enzyme containing sample Y in correlation to a sample containing the same concentration of peptide without enzyme (blank) by the following equation: % hydrolysis=100*(blank−Y)
Basis of the calculation of % inhibition is the peak area of the undegraded peptide (VIP or CNP) for an inhibitor containing sample X in comparison to samples containing only peptide (blank) or peptide and enzyme without inhibitor (control) according to the following equation: % inhib=100*(X−control)/(blank−control)
All samples were run in duplicate and mean values were used. A solvent control (0.1% DMSO) was added to each assay run. CNP and VIP were cleaved by NEP and hSEP in vitro.

T1 sequence (P08473 52-750 limits assumed): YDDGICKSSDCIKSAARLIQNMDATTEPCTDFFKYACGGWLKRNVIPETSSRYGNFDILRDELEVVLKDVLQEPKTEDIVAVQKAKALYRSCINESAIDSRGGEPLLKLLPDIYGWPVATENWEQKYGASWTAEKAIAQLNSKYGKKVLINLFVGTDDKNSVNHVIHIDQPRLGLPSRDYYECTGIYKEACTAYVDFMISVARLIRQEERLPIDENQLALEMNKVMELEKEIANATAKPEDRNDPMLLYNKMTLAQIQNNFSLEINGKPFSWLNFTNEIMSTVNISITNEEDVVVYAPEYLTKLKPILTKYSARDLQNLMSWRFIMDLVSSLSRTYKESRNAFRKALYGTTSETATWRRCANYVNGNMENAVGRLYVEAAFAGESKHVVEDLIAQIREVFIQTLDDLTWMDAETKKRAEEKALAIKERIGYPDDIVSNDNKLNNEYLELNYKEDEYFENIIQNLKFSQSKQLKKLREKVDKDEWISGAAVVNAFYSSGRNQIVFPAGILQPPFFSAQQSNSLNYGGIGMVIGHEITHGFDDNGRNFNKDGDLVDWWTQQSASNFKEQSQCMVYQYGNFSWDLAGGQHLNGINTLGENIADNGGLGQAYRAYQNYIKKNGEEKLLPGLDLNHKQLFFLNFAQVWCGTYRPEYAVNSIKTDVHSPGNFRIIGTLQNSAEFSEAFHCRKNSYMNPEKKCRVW

For CCN(CCCN)C(=O)CC(CC1(C(=O)NC2CCc3ccccc3N(CC(=O)O)C2=O)CCCC1)C(=O)O (stereo not shown) [Example 80, 4-[(3-aminopropyl)(ethyl)amino]-2-{[1-({[1-(carboxymethyl)-2-oxo-2,3,4,5-tetrahydro-1H-1-benzazepin-3-yl]amino}carbonyl)cyclopentyl]methyl}-4-oxobutanoic acid], the fraction unbound at 5 μM [1] was 0.66, the fraction unbound at 5 μM [2] was 0.73 and the “% substance-related inhibition of the maximum Big-ET effect on SAP vs. control” value [3] was −43 ± 5%. For the same compound, the pIC50 [4] was 7.80 and the pIC50 [5] was 8.52.

With “CNP: c-type natriuretic peptide, CNP (32-53), substrate of NEP and hSEP; supplier Bachem [reference compound]” the “breakdown of CNP by hSEP, degradation at t = 2 h” value [6] was 46%.

With “VIP: vasoactive intestinal peptide, substrate of NEP and hSEP; supplier Bachem [reference compound]” the “breakdown of VIP by hSEP, degradation at t = 2 h” value [6] was 36%.
